From patent publication US20230075937A1, “METHODS FOR STRENGTHENING AND REPAIRING HAIR” (Living Proof, Inc., priority 2021, published 2023)

Tests used:
Parameters in all cases: species or system human
[1] = Fracture patterns of fibers broken in Dia-stron tensile testing; conditions: 3× bleached hair; 2 wt % PA pH 4-4.5, 10 min, blow dry (virgin 34%, bleached 6%)
Description: Depending on the level of hair damage, hair fibers may break with very different fracture patterns when pulling to break. […] Fracture patterns of fibers broken from Dia-stron tensile testing were examined under optical microscope to understand the relationship between fracture pattern and hair damage level. […] In contrast, when the bleached hair was treated with a 2 wt % PA aqueous solution at pH 4-4.5 for 10 min, followed by blow dry, 38% smooth fractures were observed, close to that for virgin hair, indicating effective internal hair structure repair and complete restore by PA.
Hair fracture patterns of 3× bleached and PA formulation treated fibers after Dia-stron tensile testing were also examined and compared to those for virgin and bleached hair.

[2] = High humidity test, hair tress area change; conditions: 3× bleached hair, 65% RH, vs untreated bleached hair
Description: In this method, hair tresses are exposed to high humidity at 65% RH at 25° C. for 30 min and the area of hair tresses before and after exposure to humidity is quantified using Image J application.

[3] = Dia-Stron single fiber mechanical testing at wet stage
Description: Additionally, the strengthening benefits of PA and PA-GL blend treatments were confirmed by Dia-Stron single fiber mechanical testing at wet stage. For wet stage single fiber method, hair fibers (≥20 fibers per treatment) at 30 mm length are fixed by 2 brass crimps at the ends and mounted on a Dia-stron tray. Initial dimension measurements are collected using a Dia-Stron FDAS770 (double ended samples, sample size of 30 mm, no of slices of 5 under one rotation per slice), followed by equilibration in Deionized water for at least 2 h prior to testing. All fiber tensile measurements are performed using a Dia-Stron MTT686/MTT690 (under 100% extension at gauge force of 2N, break threshold of 5 g, rate of 20 mm/min, maximum force of 2000 gmf and premature failure threshold of 10% strain).

[4] = Differential scanning calorimetry (DSC) of hair, denaturation temperature (Td); conditions: for hair denaturation temperature: post-treatment pH 2, 5 min
Description: To explore treatment with PA and PA-GL, studies were performed using 3× bleached hair as a damaged hair model (each bleaching was done with a mixture of Bleaching powder (BW2) and 40V clear developer at 1:2 ratio, for 1 hour at room temperature). […] Differential scanning calorimetry (DSC) was performed on tresses at wet stage to determine the effect of phytic acid treatment on hair denaturation temperatures (Td). For wet stage DSC, a hair sample of 3-5 mg in 50 μL Deionized water sealed and equilibrated (overnight) in a stainless steel pressure resistant high-volume pan is heated from 25° C. to 180° C. at a 5 ° C./min heating rate. […] The heat damaged hair was prepared by subjecting virgin brown hair to 4 cycles of heat treatments. In each cycle, hair was treated with Deionized water (1 mL per 1.5 g of hair), massaged for 30 s followed by heat treatment (blow dry until dry at medium heat setting, flat iron at 450° F. for 10 strokes at a rate of 10 seconds per stroke from root to tip). At the end of 4 cycles of heat treatments, the hair tress is dialyzed overnight in Deionized water and air dried before DSC testing. The PA treatment on the heat damaged hair was performed using a 2 wt % PA aqueous solution at pH 4.5 for 30 min followed by blow dry. […] The heat protection benefit provided by PA using DSC was also explored, for which virgin hair with or without PA pre-treatment was subjected to 3 cycles of heat treatments. A virgin control sample was also added for comparison, which was prepared by treating the virgin brown hair with Deionized water (1 mL per 1.5 g of hair), massaged 30 seconds and air dried. For each heat treatment cycle, hair sample was blow dried until dry at medium heat setting, and flat ironed at 450° F. for 10 strokes at a rate of 10 seconds per stroke from root to tip. After three cycles of heat treatments, hair samples were dialyzed overnight in DI water and air dried before DSC testing. […] To explore strengthening benefits of PA in a hair care formulation, a PA formulation containing 0.75 wt % PA at pH 4-4.5 was used as an example. The 3× bleached hair was treated with 0.25 g of the PA formulation for 10 min followed by blow dry. Differential scanning calorimetry was performed on tresses to determine the effect of phytic acid treatment on hair denaturation temperatures (Td). […] The heat damaged hair was prepared by subjecting virgin brown hair to 4 cycles of heat treatments. In each cycle, hair was treated with Deionized water (1 mL per 1.5 g of hair), massaged for 30 s followed by heat treatment (blow dry until dry at medium heat setting, flat iron at 450° F. for 10 strokes at a rate of 10 seconds per stroke from root to tip). At the end of 4 cycles of the heat treatments, the hair tress is dialyzed overnight in Deionized water and air dried before DSC testing. […] Furthermore, the capability of PA formulation to protect hair from future chemical treatments (bleaching and coloring) was explored. In this study, two sets of treatments were performed and for each set three replicates were included. In Set I, a virgin tress was bleached once (1st bleach), followed by 12 cycles of shampoo and conditioner washes, then another bleach (2nd bleach). In Set II, similar bleaching and washing process was taken except that the tress was treated with PA formulation after the 1st bleach and 3rd, 6th, 9th, and 12th wash. In both bleaching steps, hair was treated with a mixture of BW2 bleaching powder and clear 30 V developer (1:1.5 ratio, 5 g per 1.5 g of hair) for 20 min under heat (high heat setting in a Belvedere hooded dryer), followed by 30 s water rinse and air dry at room temperature. The hair denaturation temperature (Td) was collected after each bleach treatment and every 3 washing cycles. […] Heat protection provided by the PA formulation using DSC was also explored. Here, three groups of hair samples were compared: virgin, heat control, and PA formulation treated. […]

[5] = Relative hair diameter swelling by environmental scanning electron microscopy; conditions: 3× bleached hair; 2 wt % PA pH 4-4.5, 30 min, blow dry; 10% to 95% RH
Description: All measurements were carried out using a FEI Quanta 200 FEG MKII scanning electron microscope, operating at 15 kV, with relative humidity ranging from 10% to 95%. Single source virgin brown hair was bleached three times to obtain a 3× bleached hair model (each bleaching was done with a mixture of bleaching powder (BW2) and 40V clear developer at 1:2 ratio for 1 hour at room temperature, followed by 30 s water rinse and air-dry at room temperature).

[6] = Modified Lowry Protein Assay, hair protein loss
Description: In addition, surface repair benefits from the PA or PA-GL treatments were evaluated by a protein loss assay. It is known that hair cuticle damage after various chemical treatments such as bleaching and perming results in a higher protein loss. To quantify the protein loss before and after treatments, a Modified Lowry Protein Assay was employed. In this method, a Lowry assay (Pierce Modified Lowry Protein Assay Kit, working range is at 1-1500 μg/mL) followed by absorbance measurement using UV-Visible Spectrophotometer (λmax at 740-760 nm) is used to quantify hair protein loss for a sample size of 250 mg of hair in 4 mL of deionized water.

[7] = Differential wetting characterization (DWC), water contact angle
Description: In this method, a pair of hair fibers is mounted on an in-house built stage in a horizontal plane with a separation of ˜0.75 mm. A droplet of deionized water (1 μL) is then applied onto the fiber pair by using a micro syringe. The droplet is observed using a Nikon microscope under 5× magnification and the image is taken using the incorporated digital camera. In the image, the contact angles of the water droplet on the fiber pair are measured respectively using the Nikon Advance Research software. The relative surface hydrophobicity of the fiber pair is correlated to the resulting contact angles, of which the greater value indicates higher hydrophobicity. […]

[8] = 3× bleached hair, 2 wt % solution, heat styling (blow dry or flatiron)
[9] = bleached hair, PA at 2, 5 or 15 wt % in Restore Repair Leave-In conditioner, flatiron
[10] = bleached hair, treatment pH 2 to 5, flatiron
[11] = colored hair, post-treatment, blow dry
[12] = more damaged model (2× bleached at 45° C.), 2 wt % PA pH 2, 1 hour

In the case of `O=P(O)(O)O[C@H]1[C@H](OP(=O)(O)O)[C@@H](OP(=O)(O)O)[C@H](OP(=O)(O)O)[C@@H](OP(=O)(O)O)[C@H]1OP(=O)(O)O` [PA, phytic acid], the smooth fractures [1] is reported as 38%, the “hair tress area increase” value ([2]; 25° C., 30 min) is reported as “much less area increase” and the “difference in area increase after 7 shampoo and conditioner washing cycles” value [2] is reported as “remained significant”. For the same compound, the “Young's modulus” value [3, 8] was “greatly improved”, the break stress [3, 8] was “greatly improved” and the “PA concentration at which significant improvement in Young's modulus and break stress was achieved” value ([3]; 3× bleached hair, PA 0.1 to 20 wt %, 15 min, heat styling) was no less than 2 wt %. The “Young's modulus” value [3, 9] was “significant increases”, the break stress [3, 9] was “significant increases” and the “Young's modulus” value [3, 10] was “greatly improved”. The break stress [3, 10] was “greatly improved”, the “Young's modulus” value [3, 11] was “greatly improved” and the break stress [3, 11] was “greatly improved”. For the same compound, the “Young's modulus” value [3, 12] was “greatly improved”, the break stress [3, 12] was “greatly improved” and the “Td after 10 shampoo and conditioner washing cycles” value ([4]; 3× bleached hair treated with 2 wt % PA aqueous solution) was no less than 149 °C. The “hair denaturation temperature (Td)” value ([4]; 3× bleached hair, 2 wt % aqueous solution pH 2, 15 min, heat styling, vs virgin hair) was “fully recovered to the virgin level”, the denaturation temperature ([4]; 3× bleached hair, PA at 2 wt % or higher concentration, vs virgin hair) was “recovered back to or even beyond the virgin level” and the hair denaturation temperature ([4]; ATG-reduced hair, blow dry, vs virgin hair) was “recovered to the level of virgin hair”. For the same compound, the hair denaturation temperature ([4]; colored 3× bleached hair, blow dry) was “recovers to the level of the virgin hair”, the “recovery in Td” value ([4]; heat damaged hair (4 heat cycles), 2 wt % PA pH 4.5, 30 min, blow dry) was 5 °C and the “immediate improvement in Td” value ([4]; treated after 1st bleach (Set II)) was 3 °C. The “Td over 12 washing cycles and after 2nd bleach” value ([4]; treated after 1st bleach and 3rd, 6th, 9th, 12th wash, vs virgin level) was “remained above the virgin level”, the “Td after 3 heating cycles” value ([4]; virgin hair treated before each heat treatment (flat iron 450° F.), heat control 7° C. decrease) was “same Td as virgin hair” and the “change in Td upon 3 cycles of heat treatments” value ([4]; virgin hair with PA pre-treatment, heat protection) was “didn't show any significant change”. The “relative diameter swelling rate” value [5] was “greatly reduced, even lower than virgin hair”, the “reduction of protein loss” value ([6]; 3× bleached hair, vs untreated bleached hair (6.6 mg/g hair)) was 27% and the “reduction of protein loss” value ([6]; ATG-reduced hair (7.9 mg/g hair untreated)) was 58%. The “increase in water contact angle” value ([7]; 3× bleached hair, vs untreated bleached hair) was 5 °, the “increase in water contact angle” value ([7]; ATG-reduced hair) was 5 ° and the “increase in water contact angle” value ([7]; colored hair) was 5 °.
